Test results as given in patent publication US8883170B2 (priority 2008, dated 2014).
Where two headings read alike, the source gives them in different places.

Tests used:
spleen cells = assay: Immunogenicity study with rHA: lymphoproliferation of restimulated spleen cells (3H-TdR incorporation); assay type: in vivo, BALB/c mice; conditions: mice immunized with compound 100 μg + rHA 5 μg; for Lymphoproliferation Con A: restimulated with concanavalin A 4 days; for Lymphoproliferation Medium: restimulated with medium (background) 4 days; for Lymphoproliferation rHA: restimulated with rHA 4 days
BALB/c mice = conditions: for overall toxicity conclusion: acute toxicity study in mice; for 7-Day Survival Males: male mice; for observations in treated animals: mice
[1] = system: recombinant hemagglutinin antigen (rHA) of influenza A; assay type: in vivo; conditions: compound 100 μg + rHA 5 μg; for Anti-rHA Titer IgG1 / Anti-rHA Titer IgG2a / Anti-rHA Titer IgG2b: s.c. Days 1 and 22, serum Day 43; for Anti-rHA Titer Total IgG: s.c. Days 1 and 22, serum Day 43, BALB/c mice
humans = conditions: in humans; cited from earlier work
[2] = single s.c. dose 250 μg, female mice
[3] = single s.c. dose 500 μg, female mice
[4] = single s.c. dose 1 mg, female mice
[5] = single s.c. dose 2 mg, female mice
[6] = single s.c. dose 4 mg in DMSO, female mice

| Compound | Lymphoproliferation Con A (spleen cells) | Lymphoproliferation Medium (spleen cells) | Lymphoproliferation rHA (spleen cells) | overall toxicity conclusion (BALB/c mice) | 7-Day Survival Females (BALB/c mice; [2]) [%] | 7-Day Survival Males (BALB/c mice; single s.c. dose 250 μg) [%] | 7-Day Survival Females (BALB/c mice; [3]) [%] | 7-Day Survival Males (BALB/c mice; single s.c. dose 500 μg) [%] | 7-Day Survival Females (BALB/c mice; [4]) [%] | 7-Day Survival Males (BALB/c mice; single s.c. dose 1 mg) [%] | 7-Day Survival Females (BALB/c mice; [5]) [%] | 7-Day Survival Males (BALB/c mice; single s.c. dose 2 mg) [%] | 7-Day Survival Females (BALB/c mice; [6]) [%] | 7-Day Survival Males (BALB/c mice; single s.c. dose 4 mg in DMSO) [%] | observations in treated animals (BALB/c mice; single s.c. injection) | Anti-rHA Titer IgG1 [1] | Anti-rHA Titer IgG2a [1] | Anti-rHA Titer IgG2b [1] | Anti-rHA Titer Total IgG [1] | other results |
| --- | --- | --- | --- | --- | --- | --- | --- | --- | --- | --- | --- | --- | --- | --- | --- | --- | --- | --- | --- | --- |
| CCCCCCCCCCCCNC(=O)C12CCC(C)(C)CC1C1=CCC3C4(C)CCC(O)C(C)(C=O)C4CCC3(C)C1(C)CC2 (stereo not shown) [Dodecyl genin, dodecylamide derivative of gypsogenin] | 278,393 | 772 | 30,402 | general lack of toxicity | 100 | 100 | 100 | 100 | 100 | 100 | 100 | 100 | 100 | 100 | lethargy, hair loss, and skin irritation at the injection site | 20,984 | 6600 | 1466 | 3418 | – |
| CC1(C)CC[C@]2(C(=O)O)CC[C@]3(C)C(=CC[C@@H]4[C@@]5(C)CC[C@H](O)[C@@](C)(C=O)[C@@H]5CC[C@]43C)[C@@H]2C1 [Gypsogenin, gypsogenin, reference compound] | 321,750 | 356 | 8507 | general lack of toxicity | 100 | 100 | 100 | 100 | 100 | 100 | 100 | 100 | 100 | 100 | lethargy, hair loss, and skin irritation at the injection site | 3220 | 348 | 1118 | 1136 | stability on storage (TLC, purity checked periodically) (kept in cold (below −4° C.), 1 year): no change was observed; stability on storage (TLC) (room temperature storage): decomposition was seen |
| CCCCCCCCCCCCNC(=O)[C@]12CCC(C)(C)C[C@H]1C1=CCC3[C@@]4(C)CC[C@H](OC5OC(CO)C(O)C(O)C5O)[C@@](C)(C=O)C4CC[C@@]3(C)[C@]1(C)CC2 (stereo partly shown) [Saponin 1] | 232,769 | 268 | 3696 | general lack of toxicity | 100 | 100 | 100 | 100 | 100 | 100 | 80 | 100 | 80 | 100 | lethargy, hair loss, and skin irritation at the injection site | 29,100 | 446 | 2008 | 5130 | maximum tolerated dose (MTD) for females (BALB/c mice; single s.c. injection, female mice): 1 mg |
| QS-21 | – | – | – | – | – | – | – | – | – | – | – | – | – | – | – | – | – | – | – | dose associated with significant local reactions (humans): ≥ 200 µg |
